Data from patent US20140235774A1, “FLUORESCENT COMPOUND, METHOD FOR PRODUCING THE SAME, AND FLUORESCENT RESIN COMPOSITION” (Shin-Etsu Chemical Co., Ltd., priority 2013, published 2014).
≈ marks a conversion by molar mass, not a printed value. One block for each compound: values may come before it.

Legend:
Assay type in all cases: physicochemical
[1] = Ultraviolet-visible absorption spectrum in solvent
Experimental: (§1) The ultraviolet-visible absorption spectrum and the fluorescent spectrum of Compound 1 were measured in ethanol. The longest absorption maximum wavelength was 359 nm, the molar absorbance coefficient was 6.50×10^4, and the maximum fluorescent wavelength was 410 nm (excitation wavelength: 359 nm).
(§2) The ultraviolet-visible absorption spectrum and the fluorescent spectrum of Compound 2 were measured in ethanol. The longest absorption maximum wavelength was 359 nm, the molar absorbance coefficient was 7.88×10^4, and the maximum fluorescent wavelength was 410 nm (excitation wavelength: 359 nm).
as §1, with “3” for “1”, “tetrahydrofuran.” for “ethanol.”, “363” for “359”, “2.65×10^4,” for “6.50×10^4,”, “413” for “410”
as §1, with “4” for “1”, “tetrahydrofuran.” for “ethanol.”, “363” for “359”, “2.83×10^4,” for “6.50×10^4,”, “413” for “410”, “363 nm)” for “359 nm).”

[2] = Fluorescent spectrum in solvent
Experimental: as §1, §2
as §1, with “3” for “1”, “tetrahydrofuran.” for “ethanol.”, “363” for “359”, “2.65×10^4,” for “6.50×10^4,”, “413” for “410”
as §1, with “4” for “1”, “tetrahydrofuran.” for “ethanol.”, “363” for “359”, “2.83×10^4,” for “6.50×10^4,”, “413” for “410”, “363 nm)” for “359 nm).”

[3] = Solubility in transparent silicone resin SIM-360 base compound (portion-wise addition until transparent); conditions: for solubility in the SIM-360 base compound: room temperature, with stirring
Experimental: Into a glass vial, 10.1 mg of Compound 1 produced in Example 1 was weighed and added with a transparent silicone resin, the SIM-360 base compound (produced by Shin-Etsu Chemical Co., Ltd.) portion-wise at room temperature with stirring. Dissolution was determined when the solution turned transparent. The solubility was calculated to be 1 mmol/L. To this mixture, 10% by mass of a curing agent was added on the basis of the base compound and mixed. After defoaming, the mixture was heated at 150° C. for 30 minutes to be cured, giving a fluorescent silicone resin composition. It was possible to change the concentration of Compound 1 freely as long as the concentration was less than or equal to the above-described concentration.

[4] = in ethanol, excitation wavelength 359 nm
[5] = in tetrahydrofuran, excitation wavelength 363 nm

SMILES: Cc1ccc(N(c2ccc(C)cc2)c2ccc(-c3ccc(N(c4ccc(-c5ccc(N(c6ccc(C)cc6)c6ccc(C)cc6)cc5)cc4)c4cccc([Si](C)(O[Si](C)(C)C)O[Si](C)(C)C)c4)cc3)cc2)cc1 [Compound 1, N,N-bis[4′-(N′,N′-di-4-tolylamino)biphenyl-4-yl]-3-(1-trimethylsiloxy-1,3,3,3-tetramethyldisiloxan-1-yl)aniline]
longest absorption maximum wavelength ([1]; in ethanol): 359 nm
molar absorbance coefficient ([1]; in ethanol): 6.50×10^4
maximum fluorescent wavelength [2, 4]: 410 nm
solubility in the SIM-360 base compound [3]: 1000 µM (≈ 1010 µg/mL)

SMILES: C[Si](C)(C)O[Si](C)(O[Si](C)(C)C)c1cccc(N(c2ccccc2)c2ccc(-c3ccc(N(c4ccccc4)c4ccc(-c5ccc(N(c6ccccc6)c6ccc(-c7ccc(N(c8ccccc8)c8cccc([Si](C)(O[Si](C)(C)C)O[Si](C)(C)C)c8)cc7)cc6)cc5)cc4)cc3)cc2)c1 [Compound 2, N,N′-bis[phenyl-3-(1-trimethylsoxy-1,3,3,3-tetramethyldisiloxan-1-yl)phenylaminobiphenyl-4′-yl]-N,N-diphenylbenzidine]
longest absorption maximum wavelength ([1]; in ethanol): 359 nm
molar absorbance coefficient ([1]; in ethanol): 7.88×10^4
maximum fluorescent wavelength [2, 4]: 410 nm
solubility in the SIM-360 base compound [3]: 500 µM (≈ 708 µg/mL)

SMILES: C[Si](C)(C)O[Si](C)(O[Si](C)(C)C)c1cccc(N(c2ccc(-c3ccc(N(c4ccccc4)c4ccc(-c5ccc(N(c6ccccc6)c6ccccc6)cc5)cc4)cc3)cc2)c2ccc(-c3ccc(N(c4ccccc4)c4ccc(-c5ccc(N(c6ccccc6)c6ccccc6)cc5)cc4)cc3)cc2)c1 [Compound 3, N,N-bis[4′-(N′-phenyl-N′-4′-diphenylaminobiphenyl-4-yl)biphenyl-4-yl]-3-(1-trimethylsiloxy-1,3,3,3-tetramethyldisiloxan-1-yl)aniline]
longest absorption maximum wavelength ([1]; in tetrahydrofuran): 363 nm
molar absorbance coefficient ([1]; in tetrahydrofuran): 2.65×10^4
maximum fluorescent wavelength [2, 5]: 413 nm
solubility in the SIM-360 base compound [3]: 100 µM (≈ 144 µg/mL)

SMILES: C[Si](C)(C)O[Si](C)(C)c1cccc(N(c2ccc(-c3ccc(N(c4ccccc4)c4ccc(-c5ccc(N(c6ccccc6)c6ccccc6)cc5)cc4)cc3)cc2)c2ccc(-c3ccc(N(c4ccccc4)c4ccc(-c5ccc(N(c6ccccc6)c6ccccc6)cc5)cc4)cc3)cc2)c1 [Compound 4, N,N-bis[4′-(N′-phenyl-N′-4′-diphenylaminobiphenyl-4-yl)biphenyl-4-yl]-3-(pentamethyldisiloxan-1-yl)aniline]
longest absorption maximum wavelength ([1]; in tetrahydrofuran): 363 nm
molar absorbance coefficient ([1]; in tetrahydrofuran): 2.83×10^4
maximum fluorescent wavelength [2, 5]: 413 nm
solubility in the SIM-360 base compound [3]: 100 µM (≈ 136 µg/mL)

solubility in the SIM-360 base compound (result in words) ([3]; measured as in Example 6): not dissolved at all
SMILES: Cc1cccc(N(c2ccc(-c3ccc(N(c4ccccc4)c4ccc(-c5ccc(N(c6ccccc6)c6ccc(-c7ccc(N(c8cccc(C)c8)c8cccc(C)c8)cc7)cc6)cc5)cc4)cc3)cc2)c2cccc(C)c2)c1 [Compound 6, reference compound]
